Measurements as given in patent publication US11007271B2, “Anticancer drug conjugates” (Ariel Scientific Innovations Ltd., priority 2016, dated 2021).
Entries after “also recorded” stand apart in the source; their conditions may differ.

Key:
[1] = system: WM-266.4 human melanoma xenograft; assay: Experiment 1: human melanoma model mice, daily IP injection for 7 days; type: in vivo
Procedure: (§1) In one experiment (Experiment 1), 14 human melanoma model mice (immune-deficient xenograft) were treated daily for 7 days by IP injection with of Chimera 358 followed by 2 days of observation according to the following groups: 4 control mice treated with saline, 5 mice treated with 25 mg and 5 mice treated with 10 mg.

[2] = system: PC-3 (human prostate cancer); assay: XTT cell growth assay, PC-3; type: cell-based; conditions: PC-3 cells; 5 to 25 μM; 24 and 48 hours incubation
Procedure: (§2) The tumors cell lines used in this study included PC-3 (human prostate cancer), WM-266-4 cell (human metastatic melanoma), MDA-MB 231 (human breast cancer) and A172 (glioblastoma). […] The benign fibroblasts were tolerable to this conjugate, accentuating its potential as anticancer candidate. At the end of the culture period, cell growth was estimated by XTT assay. After 4 hours incubation of the cells with the XTT reagent, optical density (OD) of the reduced XTT product was then measured at 480 and 680 nm. Percentage of growth inhibition by a test compound was calculated by comparison of the treated culture versus a control culture (free of any compound). The result shown for each concentration point represents the mean+/−standard error calculated from 3 different experiments. In each experiment the compounds were tested in triplicates.

[3] = system: WM-266-4 cell (human metastatic melanoma); assay: XTT cell growth assay, WM-266-4; type: cell-based; conditions: WM-266-4 cells; 5 to 25 μM; 24 and 48 hours incubation
Procedure: as §2

[4] = system: WM-266.4 human melanoma xenograft; assay: Experiment 2: human melanoma model mice, IP injection 3 times a week; type: in vivo; conditions: for WM-266.4 cell proliferation (tumor size) in vivo: IP 3 times a week
Procedure: (§3) In another experiment (Experiment 2), 13 human melanoma model mice were treated 3 times a week by IP injection with of Chimera 358 followed by 2 days of observation according to the following groups: 3 control mice received saline, 5 mice with 5 mg and 5 mice with 10 mg. The treatment was started two weeks after grafting, when tumor development has started.

[5] = system: MDA-MB 231 (human breast cancer); assay: XTT cell growth assay, MDA-MB 231; type: cell-based; conditions: MDA-MB 231 cells; 5 to 25 μM; 24 hours incubation (FIGS. 1E, 1F)
Procedure: as §2

[6] = Body weight monitoring, Experiment 1; type: in vivo, mice; conditions: 25 mg group; IP daily for 7 days
Procedure: as §1
FIG. 6 presents the results of the body weight monitoring of 14 mice that undergone the treatment described in Experiment 1.

benign fibroblasts = assay: In vitro cytotoxicity on benign fibroblasts; type: cell-based
Procedure: as §2

A172 (glioblastoma) = assay: XTT cell growth assay, A172; type: cell-based; conditions: A172 cells; 5 to 25 μM
Procedure: as §2

[7] = system: primary fibroblast (FB) cells; assay: Annexin V-FITC/PI flow cytometry detection of apoptotic/necrotic stages, fibroblasts; type: cell-based; conditions: 10 μM, compared to cancer cells
Procedure: Detection of apoptotic/necrotic stages of tumor cells was examined by Annexin V-FITC/PI apoptosis detection kit (MEBCYTO). Viable cells are negative for staining of either Annexin V or PI. Early apoptotic stage indicated with positive Annexin V and negative PI, whereas late-apoptotic and necrotic stages characterized by high PI signal.
FIGS. 3A-C present flow cytometry analysis of fibroblast cells treated with 10 μM of chimera 358 for 2 hours (FIG. 3A), 4 hours (FIG. 3B) and 8 hours (FIG. 3C), showing detection of apoptotic/necrotic stages of the cells.

[8] = Body weight monitoring, Experiment 2; type: in vivo, mice; conditions: 5 mg group; IP 3 times a week
Procedure: as §3
FIG. 7 presents the results of the body weight monitoring of 13 mice that undergone the treatment described in Experiment 2.

Question: With CN(C)CCN1C(=O)c2cccc3cc(NC(=O)CCCc4ccc(N(CCCl)CCCl)cc4)cc(c23)C1=O [Chimera 358, 4-(4-(bis(2-chloroethyl)amino)phenyl)-N-(2-(2-(dimethylamino)ethyl)-1,3-dioxo-2,3-dihydro-1H-benzo[de]isoquinolin-5-yl)butanamide] as the molecule, how does the survival ([1]; 10 mg group (5 mice), IP daily for 7 days) read?
Answer: The survival was “one mouse”.

Question: What about the “WM-266.4 cell proliferation (tumor size) in vivo” value (“WM-266.4 cell proliferation” below) ([1]; 10 mg group, after four weeks of the treatment) of the same molecule?
Answer: The value was “notable decrease in tumor size”.

Question: And the “WM-266.4 cell proliferation” value ([1]; mice receiving the treatment (25 mg, 10 mg) versus saline control)?
Answer: The value was “grew to a much lesser extent”.

Question: What about the “inhibition of cancer cell growth / cell viability (XTT)” value [2] of the same molecule?
Answer: The value was “remarkable inhibition of cancer cell growth; also recorded: notable cell toxicity”.

Question: What about the “inhibition of cancer cell growth / cell viability (XTT)” value [3] of the same molecule?
Answer: The value was “remarkable inhibition of cancer cell growth; also recorded: notable cell toxicity”.

Question: And the “WM-266.4 cell proliferation” value ([4]; 5 mg group)?
Answer: The value was “kept growing”.

Question: What about the survival ([4]; 10 mg group (5 mice), IP three times weekly) of the same molecule?
Answer: The survival was “one mouse”.

Question: And the “WM-266.4 cell proliferation” value ([4]; 10 mg group)?
Answer: The value was “grew to a much lesser extent”.

Question: And the “inhibition of cancer cell growth / cell viability (XTT)” value [5]?
Answer: Its value is “remarkable inhibition of cancer cell growth; also recorded: notable cell toxicity”.

Question: What about the body weight [6] of the same molecule?
Answer: The body weight was “loss of body weight”.

Question: And the “effect on benign fibroblasts” value (benign fibroblasts)?
Answer: Its value is “tolerable”.

Question: What about the “inhibition of cancer cell growth (XTT)” value (A172 (glioblastoma)) of the same molecule?
Answer: Its value is “remarkable inhibition of cancer cell growth”.

Question: And the “cell death (apoptotic/necrotic stages)” value [7]?
Answer: The value was “moderate”.

Question: And the body weight [8]?
Answer: The body weight was “maintained their body weight”.
